pIC50, pKd, pKi: −log10 of the molar value. Where two headings read alike, the source gives them in different places.
Legend:
[1] = biological target: α1-receptors; assay type: binding, dog; details: read-out: Alpha-1 Ki
Procedure: (§1) The lungs of mongrel dogs were separated from cartilaginous airways and major blood vessels, weighted, chopped and placed into 10 volumes of ice-cold buffered sucrose (50 mM Tris-HCl pH 7.4, 1 mM EGTA, 0.32 M Sucrose). The tissue was then homogenized in a Polytron tissue homogenizer. The homogenate was filtered through two layers of cheesecloth, and the filtrate was dounced three times using a Con-Turque Potter homogenizer. […] The supernatant was recentrifuged at 30,000×g for 30 min at 4° C. and the resulting pellet was washed and resuspended in 10 volumes of Tris buffer (50 mM Tris HCL, pH 7.4, 1 mM EGTA) and incubated at 37° C. for 30 min in a shaking water bath. The suspension was centrifuged at 4° C., at 30,000×g for 30 min and the resulting pellet washed in 10 volumes of Tris buffer. […] Protein concentration was then determined by the Lowry method and the final suspension was adjusted to 10 mg of protein/ml, aliquoted and stored at −90° C.
Nonspecific binding was determined for each concentration point in separate incubations, with 10 μM phentolamine. Each experimental point was determined in triplicate. […] All binding assay incubations were terminated by rapid dilution with 2 ml of ice-cold wash buffer (50 mM Tris-HCl, pH 7.4) and filtration through Whatman GF/B filters using Brandel receptor-binding harvester.
(§2) All data were analyzed with the aid of microcomputer nonlinear curve fitting programs (PRISM 2.0, Graphpad Software, San Diego Calif.).
(§3) The receptors resident in each of the three membrane preparations were evaluated by standard saturation analysis following the addition of increasing concentrations of the appropriate radioligand. […]

[2] = test system: New Zealand white rabbits; experiment: Intraocular pressure (IOP) after topical application to rabbit eye; details: rabbit; for effect on IOP (in words): topical 1% and 2%, treated eye
[3] = Locomotor stimulant and depressant effects in mice; details: male, Swiss-Webster, mouse, in vivo, ip
Procedure: (§4) Male Swiss-Webster mice (HSD ND4, Harlan Sprague Dawley, Houston, Tex.) aged 2-3 months were used in these studies. Each dose group consisted of 8 mice. The mice were housed 2 to 4 per cage in 30.4×22.9×15.2 cm clear polycarbonate cages with food and water available ad libitum for at least one week prior to locomotor activity testing. The colony was maintained at 23±1° C., on a normal light-dark cycle beginning at 0700 hr. All testing took place during the light portion of the light-dark cycle.
(§5) Horizontal (forward movement) locomotor activity was measured using a standardized, optical activity monitoring system [Model KXYZCM (16), Omnitech Electronics, Columbus, Ohio]. Activity was monitored in forty 40.5×40.5×30.5 cm clear acrylic chambers that where housed in sets of two within larger sound-attenuating chambers. A panel of 16 infrared beams and corresponding photodetectors were spaced 2 cm apart along the sides and 2.4 cm above the floor of each activity chamber. A 7.5-W incandescent light above each chamber provided dim illumination via a rheostat set to 20% of full scale. Fans provided an 80-dB ambient noise level within the chamber.
(§6) (+)-Amphetamine was used as a positive control. The total horizontal distance traversed (cm) was recorded at 10 minute intervals for a 2-hour session. Separate groups of 8 mice were assigned to each dose or saline group, and dose-effect testing continued for each compound until maximal stimulant or depressant effects could be estimated. A separate control group was tested along with each compound.
(§7) Using TableCurve 2D v2.03 (Jandel Scientific), the mean average total distance traversed (cm/10 min) for that period was fit to a 3-parameter logistic peak function of log10 dose (with the constant set to the mean of the saline group), and the maximum effect estimated from the resulting curve. The ED50 (dose producing ½ maximal stimulant activity) was estimated from a linear regression against log10 dose of the ascending portion of the dose-effect curve. The stimulant efficacy was the peak effect of the compound (cm/10 min) as estimated from the logistic peak function, minus the mean control distance traveled (cm/10 min), and was expressed for each stimulant compound as a ratio to the stimulant efficacy determined for (+)-amphetamine.
(§8) The mean average total distance traversed (cm/10 min) for that period were fit to a linear function of log10 dose of the descending portion of the dose-effect curve. […] Efficacy was the ratio of maximal depressant effect to maximum possible depression for each compound (mean average total distance of the control group minus the lowest mean total distance, expressed as a ratio to the control group total distance).
(§9) Time course data for each compound were considered in 2-way analyses of variance with dose as a between-group and time as a within-group factor. The dose-effect data were considered in 1-way analyses of variance, and planned individual comparisons were conduced between each dose and the saline control group. Interaction studies were considered in 2-way analyses of variance, with Pretreatment and Test dose as the factors.

[4] = test system: Swiss-Webster mice; experiment: Locomotor stimulant and depressant effects in mice; details: mice, i.p.; for locomotor depressant effect (in words) / locomotor stimulant effect (in words): 2-hour session
Procedure: as §4, §5, §6, §7, §8, §9

[5] = test system: New Zealand white rabbits; experiment: Pupil diameter / mydriasis after topical application to rabbit eye; details: for mydriasis / effect on pupil diameter (in words): topical, rabbit
[6] = test system: rats; experiment: Dosage that raised mean arterial pressure 10% in rat; assay type: in vivo
[7] = biological target: α2-receptors; experiment: ALPHA-2 binding, p-125Iodoclonidine, canine brain (frontal cortex) membranes; set-up: species or system dog; details: for IC50: Table 4, no unit in table, IC50 defined in μM, read-out: Alpha-2 IC50; for pKd: radioligand
Procedure: Membranes of mongrel dogs were harvested from the canine frontal cortex and prepared as described for lung except that the final membrane protein concentration was adjusted to 0.5 mg/ml.
Nonspecific binding was determined in separate incubations in the presence of 10 μM phentolamine. The final concentration of p-iodoclonidine was 44-45 pM in competition studies and between 50 pM and 10 nM in saturation experiments. Bound and free […] were separated and the bound quantitated as described above for the ICYP assays.
as §2
The receptors resident in each of the three membrane preparations were evaluated by standard saturation analysis following the addition of increasing concentrations of the appropriate radioligand.
The radio ligand added for subsequent α2-displacement assays was adjusted to evaluate only the high affinity receptor. Contributions from p-iodoclonidine binding to imidazoline receptors in the α2-displacement assay were evaluated with epinephrine.

[8] = test system: mongrel dogs; experiment: Intravenous dose increasing mean arterial pressure 10% in anesthetized dogs; details: anesthetized dog, i.v.
[9] = test system: Swiss-Webster mice; details: for modification of stimulant or depressant effects by triprolidine pretreatment: mice pretreated with 0.01, 0.1 or 1.0 mg/kg triprolidine
[10] = test system: Sprague Dawley rats; experiment: Nasal airway pressure in normal (non-histamine-challenged) rats; details: 100% dose i.v., non-histamine-challenged rats
[11] = test system: histamine-challenged rats; experiment: Nasal airway pressure in histamine-challenged rats; details: Investigation 1, rats
[12] = biological target: T1, β2-receptors (Canis lupus familiaris, UniProt P54833); experiment: BETA-2 binding, 125Iodocyanopindolol (ICYP), canine lung membranes; set-up: species or system dog; details: radioligand
T1 construct: The lungs of mongrel dogs were separated from cartilaginous airways and major blood vessels; from tissue; host or cells: mongrel dog lung membranes
T1 sequence (P54833 whole entry): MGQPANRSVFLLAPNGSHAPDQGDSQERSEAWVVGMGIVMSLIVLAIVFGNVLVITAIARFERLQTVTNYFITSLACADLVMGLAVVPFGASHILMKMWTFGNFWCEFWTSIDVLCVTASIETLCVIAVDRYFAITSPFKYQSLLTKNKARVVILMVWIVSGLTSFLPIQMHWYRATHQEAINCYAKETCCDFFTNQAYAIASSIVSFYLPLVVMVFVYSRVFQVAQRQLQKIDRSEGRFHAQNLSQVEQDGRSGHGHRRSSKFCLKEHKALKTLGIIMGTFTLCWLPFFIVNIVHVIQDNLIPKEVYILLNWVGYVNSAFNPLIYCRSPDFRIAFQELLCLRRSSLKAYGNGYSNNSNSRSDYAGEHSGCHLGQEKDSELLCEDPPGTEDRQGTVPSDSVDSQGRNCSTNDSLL
Procedure: as §1
Particulated were also prepared for β2 receptors using the identical procedure except the final protein concentration was adjusted to 0.1 mg/ml.
Nonspecific binding was determined in separate incubations in the presence of 2 μM dipropranolol. Each experimental point was determined in triplicate. […] Incubations were terminated as described above for the α1 assays. Filters were placed into polyethylene tubes and the bound ligand was determined by gamma spectrometry (Sano et al., 1993).
as §2, §3

## CN[C@@H](C)[C@@H](O)c1ccccc1 (single isomer, unassigned) [(+)-pseudoephedrine]
[1]
  pKi: 3.52
[2]
  effect on IOP (in words): slight acute elevation in IOP in the treated eye
[2]; topical
  effect on IOP in the contralateral eye (in words): delayed elevation in IOP
[3]
  ED50 at 30 min: 12.6 mg/kg
[4]
  locomotor depressant effect (in words): some locomotor depression
  locomotor stimulant effect (in words): negligible stimulation compared to (−)-ephedrine, but weak stimulation when comared to (+)-amphetamine
[5]
  mydriasis / effect on pupil diameter (in words): produced mydriasis in the treated eye
[6]
  Dosage of Enantiomer that Raised Mean Arterial Pressure 10%, Rat: […]
[7]
  pKi: […]
  IC50: […]
[7]; read-out: IC50 (50% displacement of iodoclonidine from α2-receptors), text / FIGS. 3 and 4 example
  pIC50: […]
[8]
  Intravenous Dose Needed to Increase MAP 10%: […]
[9]; 25, 50 or 100 mg/kg test drug, following 0.01 mg/kg triprolidine
  reversal of locomotor depression by triprolidine: reversed
[9]; following 1.0 mg/kg triprolidine
  reversal of locomotor depression by triprolidine: no significant reversal
[9]
  modification of stimulant or depressant effects by triprolidine pretreatment: Significant effects for pretreatment with triprolidine

## CN[C@H](C)[C@H](O)c1ccccc1 (single isomer, unassigned) [(−)-pseudoephedrine]
[1]
  pKi: 4.32
[10]
  Mean decrease in nasal airway pressure, % Change: […]
[2]
  effect on IOP (in words): Little or no increase in intraocular pressure
[11]
  decongestant activity (in words): as good as, or superior to, several commercially available decongestants
[3]
  ED50 at 30 min: 14.6 mg/kg
[4]
  Depression Potency (ID50, dose resulting in ½ the maximal depressant effect): 38.5 mg/kg
  locomotor depressant effect (in words): some locomotor depression
  locomotor stimulant effect (in words): negligible stimulation compared to (−)-ephedrine, but weak stimulation when comared to (+)-amphetamine
[5]; 2% solution
  Mydriatic Responses, TREATED EYE: […]
[5]
  mydriasis / effect on pupil diameter (in words): produced mydriasis in the treated eye only
[6]
  Dosage of Enantiomer that Raised Mean Arterial Pressure 10%, Rat: […]
[7]
  pKi: […]
  IC50: […]
[8]
  Intravenous Dose Needed to Increase MAP 10%: […]
[9]
  modification of stimulant or depressant effects by triprolidine pretreatment: did not show significant modification of stimulant or depressant effects

## CC(N)Cc1ccccc1 (single isomer, unassigned; (+)) [(+)-amphetamine]
[4]
  locomotor depressant effect (in words): did not cause locomotor depression
  locomotor stimulant effect (in words): dose- and time-dependent increase in the distance traversed
[4]; (−)-ephedrine: following 50 to 100 mg/kg
  onset of increased locomotion after injection: ≤ 10 min

## CN[C@H](C)[C@@H](O)c1ccccc1 [(+)-ephedrine]
[4]
  Depression Potency (ID50, dose resulting in ½ the maximal depressant effect): 7.4 mg/kg
  Stimulation Potency (ED50, dose resulting in ½ the maximal stimulant effect): 38.2 mg/kg

## CNC[C@H](O)c1ccc(O)c(O)c1 [Epinephrine, epinephrine]
[7]; check for imidazoline receptor labelling
  displacement of bound p-iodoclonidine: easily displaced all bound p-iodoclonidine

## CC(C)(C)NCC(O)COc1cccc2[nH]c(C#N)c(I)c12 (stereo not shown) [ICYP, iodocyanopindolol]
[12]; Saturation Analysis, Run 1
  Bmax: 149 femtomoles per mg protein
  pKd: 11.02
[12]; Saturation Analysis, Run 2
  Bmax: 142 femtomoles per mg protein
  pKd: 11.03
[12]; Saturation Analysis, Summary
  Bmax: 146 femtomoles per mg protein
  pKd: 11.02
[12]; Scatchard Analysis, Run 1
  Bmax: 150 femtomoles per mg protein
  pKd: 11.00
[12]; Scatchard Analysis, Run 2
  Bmax: 139 femtomoles per mg protein
  pKd: 11.11
[12]; Scatchard Analysis, Summary
  Bmax: 145 femtomoles per mg protein
  pKd: 11.05

## Clc1cc(I)cc(Cl)c1NC1=NCCN1 [p-iodoclonidine]
[7]; Saturation Analysis, read-out: Kd1 (high affinity)
  pKd: 9.82
[7]; Saturation Analysis, read-out: Kd2 (low affinity)
  pKd: 8.52
[7]; Scatchard Analysis, read-out: Kd1 (high affinity)
  pKd: 9.82
[7]; Scatchard Analysis, read-out: Kd2 (low affinity)
  pKd: 9.06

## Cc1ccc(/C(=C\CN2CCCC2)c2ccccn2)cc1 [triprolidine]
[9]; 0.25 to 25 mg/kg, injected immediately prior to testing, 2-hour test
  effect on horizontal distance, triprolidine alone: failed to affect horizontal distance
[9]; 50 and 100 mg/kg
  effect on locomotion, triprolidine alone: Dose-dependent depression of locomotion
